Data set [1] can be described thus: Cytotoxicity against human MT4 cells by MTT assay. In kind it is cell-based.
The test system of data set [2] is Human immunodeficiency virus 2. Nature of the data set: Antiviral activity against HIV2 ROD infected in human MT4 cells assessed as inhibition of virus-induced cytopathicity measured 5 days post viral infection by MTT assay. The data set is classed as functional, organism-based. The conditions noted are these: Human immunodeficiency virus 2, ISOLATE ROD, MT4, 120 h.

Data set [3] relates to Human immunodeficiency virus 1. Nature of the data set: Antiviral activity against HIV1 3B infected in human MT4 cells assessed as inhibition of virus-induced cytopathicity measured 5 days post viral infection by MTT assay. In kind it is functional, organism-based. The conditions noted are these: Human immunodeficiency virus 1, 3B, MT4, 120 h. On the technique in general: Cytopathic effects are the visible damage that an infection or toxin causes in cultured cells.

Data set [4] can be described thus: Selectivity index, ratio CC50 for human MT4 cells to EC50 for HIV 1 3B.
Data set [5] concerns Human immunodeficiency virus 1. The experiment in a line: Antiviral activity against HIV1 RES056 harboring RT K103N,Y181C double mutant infected in human MT4 cells assessed as inhibition of virus-induced cytopathicity measured 5 days post viral infection by MTT assay. In kind it is functional, organism-based. The conditions noted are these: Human immunodeficiency virus 1, RES056, MT4, 120 h.

pEC50: −log10 of the molar value. A value given as a limit tells only on which side of the number the result lay.

The term CC50 denotes the concentration giving 50% cytotoxicity. In general, pEC50 refers to −log10 of the EC50, conventionally taken in molar units. `N#Cc1ccc(Nc2nccc(C(Cl)c3ccccc3)n2)cc1` (stereo not given) had a CC50 in data set [1] of 37.8 µM. The pEC50 in data set [2] was under 4.42; in data set [3] it was 7.80; in data set [5], under 4.42. Also, the selectivity ratio in data set [4] (MT4 cells) worked out at 2340.
As to `Cc1ccc(C(Cl)c2ccnc(Nc3ccc(C#N)cc3)n2)cc1` (stereo not given), in data set [1], the CC50 was found to be 49.7 µM. Moreover, the pEC50 in data set [2] was under 4.30; in data set [3], 7.16; in data set [5], under 4.30. In data set [4] (MT4 cells), the selectivity ratio was determined as 713.
In the case of `COc1ccc(C(Cl)c2ccnc(Nc3ccc(C#N)cc3)n2)cc1` (stereo not given), in data set [1], the CC50 is at least 33.6 µM. Besides, the pEC50 is under 4.47 in data set [2], 6.66 in data set [3] and under 4.47 in data set [5].
Compound `CC(C)(C)c1ccc(C(Cl)c2ccnc(Nc3ccc(C#N)cc3)n2)cc1` (stereo not given) had a CC50 in data set [1] of 32.9 µM. Besides, the results for the pEC50 in data set [2], in data set [3] and in data set [5] were under 4.48, 6.77 and under 4.48, respectively. Moreover, in data set [4] (MT4 cells), the selectivity ratio came out at 193.
In data set [1], `N#Cc1ccc(Nc2nccc(C(Cl)c3cccc(F)c3)n2)cc1` (stereo not given) returned a CC50 of 36.8 µM. The pEC50 in data set [2] was under 4.43; in data set [3], 5.87; in data set [5], under 4.43. For the same compound, in data set [4] (MT4 cells), the selectivity ratio is 27.
The compound `N#Cc1ccc(Nc2nccc(C(Cl)c3cccc(Cl)c3)n2)cc1` (stereo not given) had a CC50 in data set [1] of 24.3 µM. Besides, the values for the pEC50 in data set [2], in data set [3] and in data set [5] were under 4.61, 8.30 and under 4.61, respectively. The selectivity ratio in data set [4] (MT4 cells) came out at 5160.
For the compound `N#Cc1ccc(Nc2nccc(C(Cl)c3cccc(Br)c3)n2)cc1` (stereo not given), in data set [1], the CC50 is 30.4 µM. Also, the pEC50 in data set [2] was under 4.52; in data set [3], 8.05; in data set [5] it was 5.09. In addition, the selectivity ratio in data set [4] (MT4 cells) came out at 3110.
The compound `N#Cc1ccc(Nc2nccc(C(Cl)c3ccc(F)cc3)n2)cc1` (stereo not given) gave a CC50 in data set [1] of 35.4 µM. In addition, the values for the pEC50 in data set [2], in data set [3] and in data set [5] were under 4.45, 5.74 and under 4.45, respectively. Further, the selectivity ratio in data set [4] (MT4 cells) was determined as 19.
With `N#Cc1ccc(Nc2nccc(C(Cl)c3ccc(Cl)cc3)n2)cc1` (stereo not given), the CC50 in data set [1] was found to be 36.1 µM. In addition, the pEC50 is under 4.44 in data set [2], 7.17 in data set [3] and under 4.44 in data set [5]. The selectivity ratio in data set [4] (MT4 cells) came out at 545.
As to `N#Cc1ccc(Nc2nccc(C(Cl)c3ccc(Br)cc3)n2)cc1` (stereo not given), it took 32.5 µM to reach half-maximal cytotoxicity in data set [1] (CC50). Also, the pEC50 is under 4.49 in data set [2], 7.42 in data set [3] and under 4.49 in data set [5]. Further, the selectivity ratio in data set [4] (MT4 cells) turned out to be 875.
On to `N#Cc1ccc(Nc2nccc(C(Cl)c3cccc4ccccc34)n2)cc1` (stereo not given), for which, in data set [1], the CC50 is 11.3 µM. The pEC50 was under 4.95 in data set [2], 6.69 in data set [3] and under 4.95 in data set [5]. In data set [4] (MT4 cells), the selectivity ratio turned out to be 56.
In turn, `Cc1cc(C(Cl)c2ccc(C(C)(C)C)cc2)nc(Nc2ccc(C#N)cc2)n1` (stereo not given) had a half-maximal cytotoxic concentration (CC50) in data set [1] of 30.3 µM. The pEC50 in data set [2] is under 4.52; in data set [3] it was 6.76; in data set [5] it was under 4.52. Moreover, the selectivity ratio in data set [4] (MT4 cells) was 173.
In the case of `Cc1cc(C(Cl)c2ccc(F)cc2)nc(Nc2ccc(C#N)cc2)n1` (stereo not given), the midpoint of cytotoxicity in data set [1], the CC50, lay at 31.1 µM. Besides, the pEC50 in data set [2] is under 4.51; in data set [3] it was 5.23; in data set [5] it was under 4.51. Also, the selectivity ratio in data set [4] (MT4 cells) stood at 5.
In turn, `Cc1cc(C(Cl)c2ccc(Br)cc2)nc(Nc2ccc(C#N)cc2)n1` (stereo not given) registered a CC50 in data set [1] of 31.9 µM. For the same compound, the pEC50 in data set [2] was under 4.50; in data set [3] it was 6.36; in data set [5], under 4.50. Moreover, the selectivity ratio in data set [4] (MT4 cells) is 75.
In data set [1], `Cc1cnc(Nc2ccc(C#N)cc2)nc1C(Cl)c1ccc(C(C)(C)C)cc1` (stereo not given) displayed a CC50 of 28.7 µM. For the same compound, the pEC50 in data set [2] is under 4.54; in data set [3], 5.75; in data set [5] it was under 4.54. Further, the selectivity ratio in data set [4] (MT4 cells) is 16.
The compound `Cc1cnc(Nc2ccc(C#N)cc2)nc1C(Cl)c1ccc(F)cc1` (stereo not given) returned a CC50 in data set [1] of 30.8 µM. Besides, the values for the pEC50 in data set [2], in data set [3] and in data set [5] were under 4.51, 5.10 and under 4.51, respectively. The selectivity ratio in data set [4] (MT4 cells) was determined as 4.
In data set [1], `Cc1cnc(Nc2ccc(C#N)cc2)nc1C(Cl)c1ccc(Br)cc1` (stereo not given) displayed a CC50 of 10.3 µM. For the same compound, the pEC50 in data set [2] was under 4.99; in data set [3] it was 6.96; in data set [5] it was under 4.99. Moreover, the selectivity ratio in data set [4] (MT4 cells) is 95.
`N#Cc1ccc(Nc2nccc(C(Br)c3ccccc3)n2)cc1` (stereo not given): the CC50 in data set [1] amounted to 69 µM. In addition, the pEC50 is under 4.16 in data set [2], 6.70 in data set [3] and under 4.16 in data set [5]. Moreover, in data set [4] (MT4 cells), the selectivity ratio came to 348.
Regarding `Cc1ccc(C(Br)c2ccnc(Nc3ccc(C#N)cc3)n2)cc1` (stereo not given), in data set [1], it took 31.5 µM to reach half-maximal cytotoxicity (CC50). Further, the values for the pEC50 in data set [2], in data set [3] and in data set [5] were under 4.50, 7.33 and under 4.50, respectively. Besides, the selectivity ratio in data set [4] (MT4 cells) is 672.
In turn, `CC(C)Nc1cccnc1N1CCN(C(=O)c2cc3cc(NS(C)(=O)=O)ccc3[nH]2)CC1` [DELAVIRDINE] had a CC50 in data set [1] of over 43.8 µM. For the same compound, the figures for the pEC50 in data set [3] and in data set [5] were 7.07 and under 4.36, respectively. The selectivity ratio in data set [4] (MT4 cells) was over 511.
On to `O=C1Nc2ccc(Cl)cc2[C@@](C#CC2CC2)(C(F)(F)F)O1` [EFAVIRENZ], for which the CC50 in data set [1] was over 6.3 µM. The selectivity ratio in data set [4] (mt4) was over 1140. Also, in data set [5], the pEC50 is 6.57.
In data set [1], `Cc1cc(C#N)cc(C)c1Oc1nc(Nc2ccc(C#N)cc2)nc(N)c1Br` [ETRAVIRINE] registered a CC50 of 14.2 µM. The pEC50 in data set [2] is under 4.85; in data set [5] it was 7.83. In data set [4] (mt4), the selectivity ratio stood at 7380.
The compound `Nc1ccn([C@@H]2CS[C@H](CO)O2)c(=O)n1` [LAMIVUDINE] gave a CC50 in data set [1] of over 87.2 µM. In addition, the results for the pEC50 in data set [2] and in data set [3] were 5.14 and 5.61, respectively. For the same compound, the selectivity ratio in data set [4] (mt4) was over 36.
Consider `Cc1ccnc2c1NC(=O)c1cccnc1N2C1CC1` [NEVIRAPINE], for which the selectivity ratio in data set [4] (MT4 cells) was over 163. Besides, in data set [5], the pEC50 is under 4.82.
In turn, `Cc1cn([C@H]2C[C@H](N=[N+]=[N-])[C@@H](CO)O2)c(=O)[nH]c1=O` [ZIDOVUDINE] yielded a CC50 in data set [1] of over 93.5 µM. Further, the pEC50 in data set [2] is 8.30; in data set [5] it was 8.15. For the same compound, in data set [4] (mt4), the selectivity ratio was over 17000.

Source of the values: ChEMBL document CHEMBL3286216, “Synthesis and biological evaluation of CHX-DAPYs as HIV-1 non-nucleoside reverse transcriptase inhibitors” (Bioorg Med Chem, 2014).
